From patent US7030145B2, “Pyridinyl derivatives for the treatment of depression” (Bristol-Myers Squibb Company, priority 2003, dated 2006)

Experiments:
[1] = target: T1, cloned human CRF-R1 receptors (Homo sapiens, UniProt P34998); test: CRF-R1 receptor binding assay (inhibition of 125I-ovine-CRF binding to cell membranes); design: key to activity (Ki class in the CRF assays): a: Ki≦100 nM; b: 100 nM<Ki≦500 nM; c: 500 nM<Ki≦5,000 nM; activity reported in percent inhibition at 10 μM; conditions: membranes of 293EBNA cells transfected with hCRFR1, class d = reported as percent inhibition at 10 μM, figures not given
T1 construct: the coding region was amplifies by PCR from start to stop codons; expressed in transfected cells; membranes
T1 sequence (P34998 24-415): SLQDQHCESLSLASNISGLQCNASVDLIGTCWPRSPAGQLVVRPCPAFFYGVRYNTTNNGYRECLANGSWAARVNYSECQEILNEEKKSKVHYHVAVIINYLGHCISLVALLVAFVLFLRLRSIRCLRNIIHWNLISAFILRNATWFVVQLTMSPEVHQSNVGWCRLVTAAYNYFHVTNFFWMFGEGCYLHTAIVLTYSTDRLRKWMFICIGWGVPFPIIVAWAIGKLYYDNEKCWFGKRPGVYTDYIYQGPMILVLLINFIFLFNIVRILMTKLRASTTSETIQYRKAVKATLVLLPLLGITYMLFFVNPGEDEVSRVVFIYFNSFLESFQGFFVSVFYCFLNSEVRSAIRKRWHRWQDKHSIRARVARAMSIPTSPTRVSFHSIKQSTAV
Summary of the method: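 Membranes from hygromycin-selected 293EBNA cells expressing human CRF-R1 were incubated for 2 h at room temperature with 150 pM 125I-ovine-CRF and test drug at 10^−10–10^−5 M final, in pH 7.0 HEPES buffer with MgCl2 and EGTA. Bound ligand was collected by filtration and gamma-counted, and Ki values were derived by iterative curve fitting.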

Ki ([1]; read-out: activity (Ki class in the CRF assays)) [nM] | melting point [°C] | activity (Ki class in the CRF assays) [1] | SMILES
100 to 500 | 96 to 97 |  | CCOc1cccc(S(=O)(=O)c2ccc(C)nc2Nc2c(C)cc(C)cc2C)c1 [Example 58, [3-(3-Ethoxybenzenesulfonyl)-6-methylpyridin-2-yl]-(2,4,6-trimethylphenyl)-amine]
 | 62 to 64 | d | COc1cc(Cl)c(Nc2nc(C)ccc2S(=O)(=O)c2ccc(OCc3ccccc3OC)cc2)cc1F [Example 2, (2-Chloro-5-fluoro-4-methoxyphenyl)-{3-[4-(2-methoxybenzyloxy)-benzenesulfonyl]-6-methylpyridin-2-yl}-amine]
